Measurements as given in ChEMBL document CHEMBL4673334, “In Vivo Biological Evaluation of a Synthetic Royleanone Derivative as a Promising Fast-Acting Trypanocidal Agent by Inducing Mitochondrial-Dependent Necrosis” (J Nat Prod, 2020).
pIC50: −log10 of the molar value. Active and inactive are the calls of the source. No cut-off for these calls is given here.

What was measured:
[1] = Toxicity in BALB/c mouse infected with Trypanosomal Trypanosoma cruzi MHOM/Pe/2011/Arequipa(DTU V) assessed as effect on LDH level at 20 mg/kg, po administered for 5 days starting at 100 days post infection and measured after 2 days post treatment; assay type: organism-based; settings: in vivo, 120 h, time 5 day
[2] = Selectivity index, ratio of IC50 for cytotoxicity against African green monkey Vero cells to IC50 for antitrypanosomal activity against Trypanosoma cruzi IRHOD/CO/2008/SN3 (DTU I) epimastigote form; assay type: toxicity, cell-based; settings: read-out: Ratio IC50
[3] = Toxicity in BALB/c mouse infected with Trypanosomal Trypanosoma cruzi MHOM/Pe/2011/Arequipa(DTU V) assessed as reduction in weight at 20 mg/kg, po administered for 5 days starting at 100 days post infection and measured up to 145 days post infection; assay type: organism-based; settings: in vivo, 120 h, time 5 day
[4] = Toxicity in BALB/c mouse infected with Trypanosomal Trypanosoma cruzi MHOM/Pe/2011/Arequipa(DTU V) assessed as effect on uric acid level at 20 mg/kg, po administered for 5 days starting at 100 days post infection and measured after 2 days post treatment; assay type: organism-based; settings: in vivo, 120 h, time 5 day
[5] = tested on: Trypanosoma cruzi; assay: Antitrypanosomal activity against Trypanosoma cruzi MHOM/Pe/2011/Arequipa(DTU V) amastigote form infected in BALB/c mouse assessed as parasite free organ tissue ratio at 20 mg/kg, po administered for 5 days starting at 100 days post infection and measured up to 145 days post infection by PCR analysis relative to control; assay type: functional; settings: time 5 day
[6] = tested on: Trypanosoma cruzi; assay: Antitrypanosomal activity against Trypanosoma cruzi TINF/CH/1956/Tulahuen (DTU VI) amastigote form infected in Vero cells assessed as parasite growth inhibition incubated for 72 hrs by Giemsa-staining based assay; assay type: functional, organism-based
[7] = tested on: Trypanosoma cruzi; assay: Antitrypanosomal activity against Trypanosoma cruzi MHOM/Pe/2011/Arequipa(DTU V) amastigote form infected in Vero cells assessed as parasite growth inhibition at 50 uM incubated for 72 hrs by Giemsa-staining based assay relative to control; assay type: functional
[8] = Inhibition of Trypanosoma cruzi MHOM/Pe/2011/Arequipa(DTU V) epimastigote form Fe-SOD by UV-VIS spectrophotometric method
[9] = Toxicity in BALB/c mouse infected with Trypanosomal Trypanosoma cruzi MHOM/Pe/2011/Arequipa(DTU V) assessed as effect on CK-MB level at 20 mg/kg, po administered for 5 days starting at 9 days post infection and measured after 2 days post treatment; assay type: organism-based; settings: in vivo, 120 h, time 5 day
[10] = tested on: Trypanosoma cruzi; assay: Antitrypanosomal activity against Trypanosoma cruzi MHOM/Pe/2011/Arequipa(DTU V) amastigote form infected in BALB/c mouse assessed as reactivation parasitaemia at 20 mg/kg, po administered for 5 days starting at 100 days post infection and measured up to 145 days post infection relative to control; assay type: functional
[11] = Toxicity in BALB/c mouse infected with Trypanosomal Trypanosoma cruzi MHOM/Pe/2011/Arequipa(DTU V) assessed as effect on total bilirubin level at 20 mg/kg, po administered for 5 days starting at 100 days post infection and measured after 2 days post treatment; assay type: organism-based; settings: in vivo, 120 h, time 5 day
[12] = Toxicity in BALB/c mouse infected with Trypanosomal Trypanosoma cruzi MHOM/Pe/2011/Arequipa(DTU V) assessed as effect on AST/GOT level at 20 mg/kg, po administered for 5 days starting at 9 days post infection and measured after 2 days post treatment; assay type: organism-based; settings: in vivo, 120 h, time 5 day
[13] = tested on: Trypanosoma cruzi; assay: Antitrypanosomal activity against Trypanosoma cruzi TINF/CH/1956/Tulahuen (DTU VI) blood stream trypomastigote form assessed as parasite growth inhibition incubated for 24 hrs by resazurin dye based assay; assay type: functional, organism-based
[14] = tested on: Trypanosoma cruzi; assay: Antitrypanosomal activity against Trypanosoma cruzi MHOM/Pe/2011/Arequipa(DTU V) epimastigote form assessed as disruption of D-lactate level at IC25 concentration incubated for 72 hrs by NMR spectrometric analysis; assay type: functional, organism-based
[15] = tested on: Trypanosoma cruzi; assay: Inhibition of nucleic acid level in Trypanosoma cruzi MHOM/Pe/2011/Arequipa(DTU V) epimastigote form at IC25 concentration after 72 hrs by Rho (FITC-A) staining based flow cytometric analysis; assay type: functional
[16] = Toxicity in BALB/c mouse infected with Trypanosomal Trypanosoma cruzi MHOM/Pe/2011/Arequipa(DTU V) assessed as effect on […] level at 20 mg/kg, po administered for 5 days starting at 100 days post infection and measured after 2 days post treatment; assay type: organism-based; settings: in vivo, 120 h, time 5 day
[17] = Toxicity in BALB/c mouse infected with Trypanosomal Trypanosoma cruzi MHOM/Pe/2011/Arequipa(DTU V) assessed as reduction in survival at 20 mg/kg, po administered for 5 days starting at 100 days post infection and measured up to 145 days post infection; assay type: organism-based; settings: in vivo, 120 h, time 5 day
[18] = tested on: Vero; assay: Cytotoxicity against African green monkey Vero cells assessed as reduction in cell viability after 48 hrs by resazurin dye based assay; settings: Chlorocebus sabaeus
[19] = tested on: Trypanosoma cruzi; assay: Antitrypanosomal activity against Trypanosoma cruzi MHOM/Pe/2011/Arequipa(DTU V) amastigote form infected in BALB/c mouse assessed as reactivation parasitaemia at 20 mg/kg, po administered for 5 days starting at 9 days post infection and measured up to 145 days post infection relative to control; assay type: functional
[20] = tested on: Trypanosoma cruzi; assay: Antitrypanosomal activity against Trypanosoma cruzi TINF/CH/1956/Tulahuen (DTU VI) epimastigote form assessed as parasite growth inhibition incubated for 48 hrs by resazurin dye based assay; assay type: functional, organism-based
[21] = Toxicity in BALB/c mouse infected with Trypanosomal Trypanosoma cruzi MHOM/Pe/2011/Arequipa(DTU V) assessed as effect on ALP level at 20 mg/kg, po administered for 5 days starting at 100 days post infection and measured after 2 days post treatment; assay type: organism-based; settings: in vivo, 120 h, time 5 day
[22] = tested on: Trypanosoma cruzi; assay: Antitrypanosomal activity against Trypanosoma cruzi MHOM/Pe/2011/Arequipa(DTU V) amastigote form infected in BALB/c mouse assessed as reduction in parasitaemia at 20 mg/kg, po for 5 days and measured after 55 days post infection; assay type: functional, organism-based; settings: time 5.0 day
[23] = tested on: Trypanosoma cruzi; assay: Antitrypanosomal activity against Trypanosoma cruzi MHOM/Pe/2011/Arequipa(DTU V) blood stream trypomastigote form assessed as parasite growth inhibition incubated for 24 hrs by resazurin dye based assay; assay type: functional, organism-based
[24] = Selectivity index, ratio of IC50 for cytotoxicity against African green monkey Vero cells to IC50 for antitrypanosomal activity against Trypanosoma cruzi MHOM/Pe/2011/Arequipa(DTU V) epimastigote form; assay type: toxicity, cell-based; settings: read-out: Ratio IC50
[25] = tested on: Trypanosoma cruzi; assay: Antitrypanosomal activity against Trypanosoma cruzi MHOM/Pe/2011/Arequipa(DTU V) epimastigote form assessed as disruption of glycerol level at IC25 concentration incubated for 72 hrs by NMR spectrometric analysis; assay type: functional, organism-based
[26] = tested on: Trypanosoma cruzi; assay: Antitrypanosomal activity against Trypanosoma cruzi IRHOD/CO/2008/SN3 (DTU I) amastigote form infected in Vero cells assessed as parasite growth inhibition incubated for 72 hrs by Giemsa-staining based assay; assay type: functional, organism-based
[27] = tested on: Trypanosoma cruzi; assay: Antitrypanosomal activity against Trypanosoma cruzi MHOM/Pe/2011/Arequipa(DTU V) amastigote form infected in Vero cells assessed as parasite growth inhibition incubated for 72 hrs by Giemsa-staining based assay; assay type: functional, organism-based
[28] = tested on: Trypanosoma cruzi; assay: Antitrypanosomal activity against Trypanosoma cruzi MHOM/Pe/2011/Arequipa(DTU V) epimastigote form assessed as disruption of ethanol end product level at IC25 concentration incubated for 72 hrs by NMR spectrometric analysis; assay type: functional, organism-based
[29] = Toxicity in BALB/c mouse infected with Trypanosomal Trypanosoma cruzi MHOM/Pe/2011/Arequipa(DTU V) assessed as effect on LDH level at 20 mg/kg, po administered for 5 days starting at 9 days post infection and measured after 2 days post treatment; assay type: organism-based; settings: in vivo, 120 h, time 5 day

Row | SMILES | Activity [1] | selectivity ratio [2] | Activity [3] | Activity [4] | Activity [5] | pIC50 [6] | inhibition at 50 µM [7] | pIC50 [8] | Activity [9] | Activity [11] | Activity [12] | pIC50 [13] | Activity [14] | inhibition [15] | Activity [16] | Activity [17] | pIC50 [18] | pIC50 [20] | Activity [21] | Activity [22] | other results
1 | COC(=O)[C@]1(C)CCC[C@]2(C)C3=C(C=C[C@@H]12)C(=O)C(C(C)C)=CC3=O | Non-Toxic | > 15 | Non-Toxic | Non-Toxic | 57.1% | 5.15 | 100% | 5.19 | Non-Toxic | Non-Toxic | Non-Toxic | 5.80 | inactive | 50.4% | Non-Toxic | Non-Toxic | 4.14 | 5.68 | Non-Toxic | Active | Activity ([10]; time 5 day): 52%; Activity ([19]; time 5 day): 52%; pIC50 [23]: 6.15; selectivity ratio [24]: > 15; Activity [25]: Active; pIC50 [26]: 5.27; pIC50 [27]: 5.32; Activity [28]: Active; Activity [29]: Non-Toxic
2 | CC(C)c1cc(C=O)c([C@@]2(C)CCCC(C)(C)C2=O)cc1O | Non-Toxic | > 15 | Non-Toxic | Non-Toxic | 42.9% | 5.06 | 100% | < 4.00 | Non-Toxic | Non-Toxic | Non-Toxic | 5.03 | inactive | 36.4% | Non-Toxic | Non-Toxic | 3.20 | 4.87 | Non-Toxic | Active | Activity ([10]; time 5.0 day): Active; Activity ([19]; time 5.0 day): Active; pIC50 [23]: 5.00; selectivity ratio [24]: > 15; Activity [25]: Active; pIC50 [26]: 5.14; pIC50 [27]: 5.04; Activity [28]: Active; Activity [29]: Non-Toxic
